US10537603B2, “Pharmaceutical composition for preventing or treating angioedema, containing extract of peony root or mixture of peony root and licorice as active ingredient” (Korea Institute of Oriental Medicine, priority 2014, dated 2020)

Legend:
[1] = test system: advanced glycation end product (AGE) generation; assay: Inhibition of advanced glycation end product (AGE) generation, BSA with fructose/glucose, fluorescence; format: biochemical; conditions: BSA 10 mg/ml, 0.2 M fructose + 0.2 M glucose, 37° C., 7 days
Experimental: To determine the inhibitory effect of advanced glycation end product generation of the peony root extract, or the mixed extract of peony root and licorice, the present inventors used 10 mg/ml of bovine serum albumin (Sigma, St. Louis, Mo., USA) dissolved in 50 mM phosphate buffer (pH 7.4) as a protein source and a mixed liquid of 0.2 M fructose and 0.2 M glucose as a sugar source, respectively.
The extracts of <Example 1> and a positive control group (aminoguanidine) were dissolved in 30 μl of 0.2% DMSO, and then again dissolved in 15% tween 80. The protein source, the sugar source and the extracts of the present invention as prepared above were mixed and compounded to a total of 1 ml, and then each cultured at 37° C. for 7 days to allow for glycation. At this time 0.02% azide (sodium azide) was added thereto to prevent from generating bacteria during the culture period. After the culture fluorescence (spectrofluorometric detector; Bio-TEK, Synergy HT, USA; Ex: 350 nm; Em: 450 nm) was measured and then calculated with Equation 1 below, with showing the result in Table 2.

[2] = test system: MNU-induced animal models; assay: Comparison of CJG30R and paeoniflorin in MNU-induced age-related macular degeneration model (ONL thickness); format: in vivo, C57BL/6 mice; conditions: CJG30R 100 mg/kg, PF 6.5 mg/kg oral
Experimental: The 6-week-old male C57BL/6 mice were used after acclimatization for 1 week. To induce damage and degeneration of photoreceptor cells among morphological changes of retinal tissues appearing in macular degeneration, 1% (0.05% acetic acid) N-methyl-N-nitrosourea (MNU, Sigma, USA) was intraperitoneally injected to the 7-week-old male C57BL/6 mice (60 mg/kg). The same amount of 0.05% acetic acid was intraperitoneally administered to the normal group. CJG30R (100 mg/kg) and PF-6.6 (6.5 mg/kg) as test drugs were suspended and compounded in 0.5% sodium carboxymethyl cellulose (CMC), orally administrated one day before MNU administration, and orally administrated once per day for 7 days after MNU administration. The same amount of 0.5% CMC was orally administrated to the normal group and the MNU-induced group. After completing administration of the test drugs, eyes were enucleated by carrying out an autopsy on the mice, and then mounted on 10% neutralized formalin for one day and embedded in paraffin to prepare slide sections. Slide sections were stained with Hematoxylin & Eosin (H & E) and observed under an optical microscope. The damage and degeneration of the photoreceptor cells were measured and evaluated by thickness changes in the outer nuclear layer of the retinal tissues.

[3] = test system: human retinal pigment epithelial cell lines (ARPE-19); conditions: ARPE-19, Molecular Vision 2011; 17: 3512-3522; cited from earlier work

Row | Compound | IC50, inhibitory effect of advanced glycation end product generation [1] [µg/mL] | Effect on outer nuclear layer damage as compared to the MNU administration group [2] | ONL thickness (AU) ([2]; MNU 60 mg/kg i.p., NOR 1.99 ± 0.21, MNU 0.92 ± 0.17) | ONL thickness (%) ([2]; NOR = 100, MNU = 0) | Effect on cell death due to H2O2 and oxidative stress [3]
1 | N=C(N)NN [Aminoguanidine, aminoguanidine] | 81.38 ± 2.70 |  |  |  | 
2 | C[C@@]12C[C@@]3(O)O[C@@H](O1)[C@]1(COC(=O)c4ccccc4)[C@H]3C[C@@]12O[C@@H]1O[C@H](CO)[C@@H](O)[C@H](O)[C@H]1O [PF-6.5, paeoniflorin] |  | no effect at all | 0.96 ± 0.17 | 3.52 ± 16.11 | inhibitory effects
